In patent US10695321B2, “Use of glycopyrrolate for treating tachycardia” (Heptares Therapeutics Limited, priority 2011, dated 2020):

Test: Sealed storage of micronised glycopyrrolate batches, physical changes and repeated particle sizing
Type: physicochemical
Conditions: sealed storage for several weeks
Description: Batches of micronised glycopyrrolate were obtained and, following sealed storage for several weeks, the physical changes of the material from fine cohesive powders to solid agglomerates were observed.
The following section summarises the tests conducted on reported batches of glycopyrrolate received following micronisation: […]

SMILES: C[N+]1(C)CCC(OC(=O)C(O)(c2ccccc2)C2CCCC2)C1 (centres unmarked) [Batch A, glycopyrrolate]
- Physical state of powder on storage: soft lumps of material were found in bulk powder

SMILES: C[N+]1(C)CCC(OC(=O)C(O)(c2ccccc2)C2CCCC2)C1 (centres unmarked) [Batch B, glycopyrrolate]
- Physical state of powder on storage: large hard lumps of material were found

SMILES: C[N+]1(C)CCC(OC(=O)C(O)(c2ccccc2)C2CCCC2)C1 (centres unmarked) [Batch C, glycopyrrolate]
- d50 on repeated particle sizing on storage (micronised powder): 51 μm
- Physical state of powder on storage: large hard lumps of material were found in bulk powder

SMILES: C[N+]1(C)CCC(OC(=O)C(O)(c2ccccc2)C2CCCC2)C1 (centres unmarked) [Remicronised Batch C, glycopyrrolate]
- Physical state of powder on storage: only soft lumps of material were found in bulk powder
